Reference: PubChem BioAssay AID1918948 (Molecular Pharmacology Branch, DTP, NCI, 2023)

Tested on: K-562 leukemia growth, % test/control
Experiment: Anticancer human tumor K-562 cell line growth inhibition;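 further: spheroids exposed to compounds for 7 days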;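 on viability, T/C: 100% = DMSO vehicle wells and lower values mean fewer viable cells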
Details: spheroids with HUVEC and MSC; for IC50: curve of first compound; for viability, T/C: stronger effect = lower value
Outline: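 Drug combinations with the LSD1 inhibitor iadademstat tested on tumor cells co-cultured as spheroids with endothelial cells and mesenchymal stem cells. Concentrations descended in half-log increments from clinical Cmax or 10 microM.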

## Nc1ncn(C2CC(O)C(CO)S2)c(=O)n1 (stereo not given) + NC1CCC(NC2CC2c2ccccc2)CC1
Second compound 0.1 µM
  IC50: 0.175 µM
Second compound 0.316 µM
  IC50: 0.171 µM
Second compound 1 µM
  IC50: 0.148 µM
Second compound 3.16 µM
  IC50: 0.136 µM
Second compound 10 µM
  IC50: 0.06 µM
Second compound 0.1 µM, first compound 0.000949 µM
  viability, T/C: 102%
Second compound 0.1 µM, first compound 0.003 µM
  viability, T/C: 106%
Second compound 0.1 µM, first compound 0.00949 µM
  viability, T/C: 107%
Second compound 0.1 µM, first compound 0.03 µM
  viability, T/C: 95.6%
Second compound 0.1 µM, first compound 0.0949 µM
  viability, T/C: 69%
Second compound 0.1 µM, first compound 0.3 µM
  viability, T/C: 33.5%
Second compound 0.316 µM, first compound 0.000949 µM
  viability, T/C: 106%
Second compound 0.316 µM, first compound 0.003 µM
  viability, T/C: 108%
Second compound 0.316 µM, first compound 0.00949 µM
  viability, T/C: 108%
Second compound 0.316 µM, first compound 0.03 µM
  viability, T/C: 95.7%
Second compound 0.316 µM, first compound 0.0949 µM
  viability, T/C: 68%
Second compound 0.316 µM, first compound 0.3 µM
  viability, T/C: 33%
Second compound 1 µM, first compound 0.000949 µM
  viability, T/C: 108%
Second compound 1 µM, first compound 0.003 µM
  viability, T/C: 110%
Second compound 1 µM, first compound 0.00949 µM
  viability, T/C: 107%
Second compound 1 µM, first compound 0.03 µM
  viability, T/C: 94.3%
Second compound 1 µM, first compound 0.0949 µM
  viability, T/C: 65.2%
Second compound 1 µM, first compound 0.3 µM
  viability, T/C: 26.6%
Second compound 3.16 µM, first compound 0.000949 µM
  viability, T/C: 108%
Second compound 3.16 µM, first compound 0.003 µM
  viability, T/C: 111%
Second compound 3.16 µM, first compound 0.00949 µM
  viability, T/C: 106%
Second compound 3.16 µM, first compound 0.03 µM
  viability, T/C: 89.2%
Second compound 3.16 µM, first compound 0.0949 µM
  viability, T/C: 60.3%
Second compound 3.16 µM, first compound 0.3 µM
  viability, T/C: 28.4%
Second compound 10 µM, first compound 0.000949 µM
  viability, T/C: 102%
Second compound 10 µM, first compound 0.003 µM
  viability, T/C: 107%
Second compound 10 µM, first compound 0.00949 µM
  viability, T/C: 95.9%
Second compound 10 µM, first compound 0.03 µM
  viability, T/C: 70.7%
Second compound 10 µM, first compound 0.0949 µM
  viability, T/C: 36.5%
Second compound 10 µM, first compound 0.3 µM
  viability, T/C: 18.6%

## O=C(C=Cn1cnc(-c2cc(C(F)(F)F)cc(C(F)(F)F)c2)n1)NNc1cnccn1 + NC1CCC(NC2CC2c2ccccc2)CC1
Second compound 0.1 µM
  IC50: 0.0598 µM
Second compound 0.316 µM
  IC50: 0.0589 µM
Second compound 1 µM
  IC50: 0.061 µM
Second compound 3.16 µM
  IC50: 0.0606 µM
Second compound 10 µM
  IC50: 0.0431 µM
Second compound 0.1 µM, first compound 0.00316 µM
  viability, T/C: 104%
Second compound 0.1 µM, first compound 0.01 µM
  viability, T/C: 92.3%
Second compound 0.1 µM, first compound 0.0316 µM
  viability, T/C: 69.5%
Second compound 0.1 µM, first compound 0.1 µM
  viability, T/C: 36.6%
Second compound 0.1 µM, first compound 0.316 µM
  viability, T/C: 4.19%
Second compound 0.1 µM, first compound 1 µM
  viability, T/C: 1.72%
Second compound 0.316 µM, first compound 0.00316 µM
  viability, T/C: 107%
Second compound 0.316 µM, first compound 0.01 µM
  viability, T/C: 92%
Second compound 0.316 µM, first compound 0.0316 µM
  viability, T/C: 69.2%
Second compound 0.316 µM, first compound 0.1 µM
  viability, T/C: 36.5%
Second compound 0.316 µM, first compound 0.316 µM
  viability, T/C: 4.44%
Second compound 0.316 µM, first compound 1 µM
  viability, T/C: 1.67%
Second compound 1 µM, first compound 0.00316 µM
  viability, T/C: 107%
Second compound 1 µM, first compound 0.01 µM
  viability, T/C: 91.5%
Second compound 1 µM, first compound 0.0316 µM
  viability, T/C: 70%
Second compound 1 µM, first compound 0.1 µM
  viability, T/C: 38.2%
Second compound 1 µM, first compound 0.316 µM
  viability, T/C: 4.8%
Second compound 1 µM, first compound 1 µM
  viability, T/C: 2.29%
Second compound 3.16 µM, first compound 0.00316 µM
  viability, T/C: 103%
Second compound 3.16 µM, first compound 0.01 µM
  viability, T/C: 92.5%
Second compound 3.16 µM, first compound 0.0316 µM
  viability, T/C: 67.8%
Second compound 3.16 µM, first compound 0.1 µM
  viability, T/C: 38.8%
Second compound 3.16 µM, first compound 0.316 µM
  viability, T/C: 4.71%
Second compound 3.16 µM, first compound 1 µM
  viability, T/C: 1.78%
Second compound 10 µM, first compound 0.00316 µM
  viability, T/C: 88.8%
Second compound 10 µM, first compound 0.01 µM
  viability, T/C: 75.1%
Second compound 10 µM, first compound 0.0316 µM
  viability, T/C: 57.1%
Second compound 10 µM, first compound 0.1 µM
  viability, T/C: 33.7%
Second compound 10 µM, first compound 0.316 µM
  viability, T/C: 3.55%
Second compound 10 µM, first compound 1 µM
  viability, T/C: 2.29%
